Holding throughout (type): functional
For assay [1], the system named is Rattus norvegicus. Kind of assay: The reduction of thrombolytic mass by the compound was calculated at a dose of 7.4 mg/Kg.
For assay [2], the system named is Rattus norvegicus. Kind of assay: The reduction of thrombolytic mass by the compound was calculated at a dose of 8 mg/kg.
Assay [3] deals with Rattus norvegicus. Kind of assay: The reduction of thrombolytic mass by the compound was calculated at a dose of 5.4 mg/Kg.
The subject of assay [4] is Rattus norvegicus. Kind of assay: The reduction of thrombolytic mass by the compound was calculated at a dose of 7.2 mg/Kg.
In assay [5] the test system is Rattus norvegicus. Kind of assay: The reduction of thrombolytic mass by the compound was calculated at a dose of 5.3 mg/Kg.
The test system of assay [6] is Rattus norvegicus. Put plainly: The reduction of thrombolytic mass by the compound was calculated at a dose of 6 mg/kg.

Square brackets hold non-standard residues; d marks the D form. Peptide text beside a SMILES is read from it. Tpi = O=C(O)[C@@H]1Cc2c([nH]c3ccccc23)CN1

On to `C[C@H](NC(=O)[C@@H]1Cc2c([nH]c3ccccc23)CN1)C(=O)N[C@@H](CCCN=C(N)N)C(=O)N1CCC[C@H]1C(=O)N[C@@H](C)C(=O)N[C@@H](CCCCN)C(=O)O` (H-[Tpi]ARPAK-OH), for which, in the assay on Rattus norvegicus [1], the Activity is listed as 16.13 mg. Consider `C[C@H](NC(=O)[C@@H]1CCCN1C(=O)[C@H](CCCN=C(N)N)NC(=O)[C@H](CCC(N)=O)NC(=O)[C@@H]1Cc2c([nH]c3ccccc23)CN1)C(=O)N[C@@H](CCCCN)C(=O)O` (H-[Tpi]QRPAK-OH), for which the Activity with Rattus norvegicus [2] is on record as 17.27 mg.

With H-ARPAK-OH, in the assay on Rattus norvegicus [3], the Activity is 18.84 mg. As to `C[C@H](NC(=O)[C@@H]1CCCN1C(=O)[C@H](CCCN=C(N)N)NC(=O)CNC(=O)[C@@H]1Cc2c([nH]c3ccccc23)CN1)C(=O)N[C@@H](CCCCN)C(=O)O` (H-[Tpi]GRPAK-OH), the Activity with Rattus norvegicus [4] was 19.7 mg. Regarding H-GRPAK-OH, in the assay with Rattus norvegicus [5], the Activity is 25.9 mg. Turning to H-QRPAK-OH, the Activity in the assay with Rattus norvegicus [6] is reported as 21.28 mg.

The values above are taken from ChEMBL document CHEMBL1134885, “Synthesis and thrombolytic activity of pseudopeptides related to fibrinogen fragment” (2002).
